Measurements as given in patent publication US9629822B2, “Flavonoid based antiviral targets” (UNIVERSITY OF CENTRAL FLORIDA RESEARCH FOUNDATION, INC., priority 2012, dated 2017).

System: CHO cells
Assay: CHO cell toxicity, MTS assay, 48 h
Type: cell-based, Chinese hamster
Details: Cricetulus griseus, CHO, 37° C., MTS reagent, read-out: CHO 48 h IC50 value
Summary of the method: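 CHO cells plated at 10,000 cells/mL, incubated overnight, then exposed to drug (final DMSO <1%) for 48 h at 37 °C, 5% CO2, in triplicate. MTS added for a further 4 h; absorbance read at 490 nm. IC50 taken from relative A490 versus drug concentration.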

SMILES	IC50 [µM]
COc1ccc(Br)cc1/C=C/C(=O)c1ccc2ccccc2c1O [Compound 8m, (E)-3-(5-bromo-2-methoxyphenyl)-1-(1-hydroxynaphthalen-2-yl)prop-2-en-1-one]	15.6 ± 1
COc1ccccc1-c1oc2ccccc2c(=O)c1O [Compound 9a, 3-Hydroxy-2-(2-methoxyphenyl)-4H-chromen-4-one]	> 100

System: HIV-1 BaL
Assay: Anti-HIV assay (luciferase, HIV-1 BaL infection)
Type: cell-based
Details: 1.25 μM, Experiment 2B
Summary of the method: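 Cells infected with HIV-1 BaL at 2 ng/mL p24 (MOI approx 0.02) in compound presence. Infection read out by luciferase.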

SMILES	RLU (relative luciferase units) [RLU]
COc1ccc(Br)cc1/C=C/C(=O)c1ccc2ccccc2c1O [Compound 8m, (E)-3-(5-bromo-2-methoxyphenyl)-1-(1-hydroxynaphthalen-2-yl)prop-2-en-1-one]	324.10

Same assay, conditions: 2.5 μM, Experiment 2B

SMILES	RLU (relative luciferase units) [RLU]
COc1ccc(Br)cc1/C=C/C(=O)c1ccc2ccccc2c1O [Compound 8m, (E)-3-(5-bromo-2-methoxyphenyl)-1-(1-hydroxynaphthalen-2-yl)prop-2-en-1-one]	283.48

Same assay, conditions: 5 μM, Experiment 2B

SMILES	RLU (relative luciferase units) [RLU]
COc1ccc(Br)cc1/C=C/C(=O)c1ccc2ccccc2c1O [Compound 8m, (E)-3-(5-bromo-2-methoxyphenyl)-1-(1-hydroxynaphthalen-2-yl)prop-2-en-1-one]	251.02
COc1ccccc1-c1oc2ccccc2c(=O)c1O [Compound 9a, 3-Hydroxy-2-(2-methoxyphenyl)-4H-chromen-4-one]	16.52

Same assay, conditions: 10 μM, Experiment 1B, 2 ng/mL p24 HIV-1 BaL

SMILES	RLU (relative luciferase units) [RLU]
COc1ccc(Br)cc1/C=C/C(=O)c1ccc2ccccc2c1O [Compound 8m, (E)-3-(5-bromo-2-methoxyphenyl)-1-(1-hydroxynaphthalen-2-yl)prop-2-en-1-one]	437.6

Same assay, conditions: 10 μM, Experiment 2B

SMILES	RLU (relative luciferase units) [RLU]
COc1ccc(Br)cc1/C=C/C(=O)c1ccc2ccccc2c1O [Compound 8m, (E)-3-(5-bromo-2-methoxyphenyl)-1-(1-hydroxynaphthalen-2-yl)prop-2-en-1-one]	170.42
COc1ccccc1-c1oc2ccccc2c(=O)c1O [Compound 9a, 3-Hydroxy-2-(2-methoxyphenyl)-4H-chromen-4-one]	16.51

Same assay, conditions: 20 μM, Experiment 2B

SMILES	RLU (relative luciferase units) [RLU]
COc1ccc(Br)cc1/C=C/C(=O)c1ccc2ccccc2c1O [Compound 8m, (E)-3-(5-bromo-2-methoxyphenyl)-1-(1-hydroxynaphthalen-2-yl)prop-2-en-1-one]	160.21
COc1ccccc1-c1oc2ccccc2c(=O)c1O [Compound 9a, 3-Hydroxy-2-(2-methoxyphenyl)-4H-chromen-4-one]	36.83

Same assay, conditions: 40 μM, Experiment 2B

SMILES	RLU (relative luciferase units) [RLU]
COc1ccccc1-c1oc2ccccc2c(=O)c1O [Compound 9a, 3-Hydroxy-2-(2-methoxyphenyl)-4H-chromen-4-one]	65.50

Same assay, conditions: 80 μM, Experiment 2B

SMILES	RLU (relative luciferase units) [RLU]
COc1ccccc1-c1oc2ccccc2c(=O)c1O [Compound 9a, 3-Hydroxy-2-(2-methoxyphenyl)-4H-chromen-4-one]	59.24

Same assay, conditions: Human immunodeficiency virus 1, BAL, 1.25 μM, Experiment 2B

SMILES	inhibition at 1.25 µM [%]
COc1ccc(Br)cc1/C=C/C(=O)c1ccc2ccccc2c1O [Compound 8m, (E)-3-(5-bromo-2-methoxyphenyl)-1-(1-hydroxynaphthalen-2-yl)prop-2-en-1-one]	-24.3

Same assay, conditions: Human immunodeficiency virus 1, BAL, 2.5 μM, Experiment 2B

SMILES	inhibition at 2.5 µM [%]
COc1ccc(Br)cc1/C=C/C(=O)c1ccc2ccccc2c1O [Compound 8m, (E)-3-(5-bromo-2-methoxyphenyl)-1-(1-hydroxynaphthalen-2-yl)prop-2-en-1-one]	-9.08

Same assay, conditions: Human immunodeficiency virus 1, BAL, 5 μM, Experiment 2B

SMILES	inhibition at 5 µM [%]
COc1ccc(Br)cc1/C=C/C(=O)c1ccc2ccccc2c1O [Compound 8m, (E)-3-(5-bromo-2-methoxyphenyl)-1-(1-hydroxynaphthalen-2-yl)prop-2-en-1-one]	9.04
COc1ccccc1-c1oc2ccccc2c(=O)c1O [Compound 9a, 3-Hydroxy-2-(2-methoxyphenyl)-4H-chromen-4-one]	-3.31

Same assay, conditions: Human immunodeficiency virus 1, BAL, 10 μM, Experiment 1B, 2 ng/mL p24 HIV-1 BaL

SMILES	inhibition at 10 µM [%]
COc1ccc(Br)cc1/C=C/C(=O)c1ccc2ccccc2c1O [Compound 8m, (E)-3-(5-bromo-2-methoxyphenyl)-1-(1-hydroxynaphthalen-2-yl)prop-2-en-1-one]	53.3

Same assay, conditions: Human immunodeficiency virus 1, BAL, 10 μM, Experiment 2B

SMILES	inhibition at 10 µM [%]
COc1ccc(Br)cc1/C=C/C(=O)c1ccc2ccccc2c1O [Compound 8m, (E)-3-(5-bromo-2-methoxyphenyl)-1-(1-hydroxynaphthalen-2-yl)prop-2-en-1-one]	37.7
COc1ccccc1-c1oc2ccccc2c(=O)c1O [Compound 9a, 3-Hydroxy-2-(2-methoxyphenyl)-4H-chromen-4-one]	-24.9

Same assay, conditions: Human immunodeficiency virus 1, BAL, 20 μM, Experiment 2B

SMILES	inhibition at 20 µM [%]
COc1ccc(Br)cc1/C=C/C(=O)c1ccc2ccccc2c1O [Compound 8m, (E)-3-(5-bromo-2-methoxyphenyl)-1-(1-hydroxynaphthalen-2-yl)prop-2-en-1-one]	49.9
COc1ccccc1-c1oc2ccccc2c(=O)c1O [Compound 9a, 3-Hydroxy-2-(2-methoxyphenyl)-4H-chromen-4-one]	-21.9

Same assay, conditions: Human immunodeficiency virus 1, BAL, 40 μM, Experiment 2B

SMILES	inhibition at 40 µM [%]
COc1ccccc1-c1oc2ccccc2c(=O)c1O [Compound 9a, 3-Hydroxy-2-(2-methoxyphenyl)-4H-chromen-4-one]	-25.4

Same assay, conditions: Human immunodeficiency virus 1, BAL, 80 μM, Experiment 2B

SMILES	inhibition at 80 µM [%]
COc1ccccc1-c1oc2ccccc2c(=O)c1O [Compound 9a, 3-Hydroxy-2-(2-methoxyphenyl)-4H-chromen-4-one]	-7.86

System: not listed separately
Assay: TZMbI assay for cell safety (cell viability and growth, CytoTox Glo)
Details: human, TZMbI cells, 1.25 μM, Experiment 2A; read-out: % decrease in viability compared to 0.1% DMSO vehicle based on viable cell luminescence
Method: Assays were performed below in accordance with the procedures set forth in The Journal of Immunology, 2006, 176, pp. 6900-905; AIDS Research and Human Retroviruses, 2004, 20:11, pp. 1157-1665.^32,33 TZMbI assays for cell safety were performed to identify potential anti-viral compounds. TZMbI assays for cell safety were performed to identify potential anti-viral compounds per the methods.

SMILES	cytotoxicity at 1.25 μM [%]
COc1ccc(Br)cc1/C=C/C(=O)c1ccc2ccccc2c1O [Compound 8m, (E)-3-(5-bromo-2-methoxyphenyl)-1-(1-hydroxynaphthalen-2-yl)prop-2-en-1-one]	10.3

Same assay, conditions: human, TZMbI cells, 2.5 μM, Experiment 2A; read-out: % decrease in viability compared to 0.1% DMSO vehicle based on viable cell luminescence

SMILES	cytotoxicity at 2.5 μM [%]
COc1ccc(Br)cc1/C=C/C(=O)c1ccc2ccccc2c1O [Compound 8m, (E)-3-(5-bromo-2-methoxyphenyl)-1-(1-hydroxynaphthalen-2-yl)prop-2-en-1-one]	17.9

Same assay, conditions: human, TZMbI cells, 5 μM, Experiment 2A; read-out: % decrease in viability compared to 0.1% DMSO vehicle based on viable cell luminescence

SMILES	cytotoxicity at 5 μM [%]
COc1ccc(Br)cc1/C=C/C(=O)c1ccc2ccccc2c1O [Compound 8m, (E)-3-(5-bromo-2-methoxyphenyl)-1-(1-hydroxynaphthalen-2-yl)prop-2-en-1-one]	10.7
COc1ccccc1-c1oc2ccccc2c(=O)c1O [Compound 9a, 3-Hydroxy-2-(2-methoxyphenyl)-4H-chromen-4-one]	-3.31

Same assay, conditions: human, TZMbI cells, 10 μM, Experiment 1A; read-out: % decrease in viability compared to 0.1% DMSO vehicle based on viable cell luminescence

SMILES	cytotoxicity at 10 μM [%]
COc1ccc(Br)cc1/C=C/C(=O)c1ccc2ccccc2c1O [Compound 8m, (E)-3-(5-bromo-2-methoxyphenyl)-1-(1-hydroxynaphthalen-2-yl)prop-2-en-1-one]	20.3

Same assay, conditions: human, TZMbI cells, 10 μM, Experiment 2A; read-out: % decrease in viability compared to 0.1% DMSO vehicle based on viable cell luminescence

SMILES	cytotoxicity at 10 μM [%]
COc1ccc(Br)cc1/C=C/C(=O)c1ccc2ccccc2c1O [Compound 8m, (E)-3-(5-bromo-2-methoxyphenyl)-1-(1-hydroxynaphthalen-2-yl)prop-2-en-1-one]	38.2
COc1ccccc1-c1oc2ccccc2c(=O)c1O [Compound 9a, 3-Hydroxy-2-(2-methoxyphenyl)-4H-chromen-4-one]	-24.9

Same assay, conditions: human, TZMbI cells, 20 μM, Experiment 2A; read-out: % decrease in viability compared to 0.1% DMSO vehicle based on viable cell luminescence

SMILES	cytotoxicity at 20 μM [%]
COc1ccc(Br)cc1/C=C/C(=O)c1ccc2ccccc2c1O [Compound 8m, (E)-3-(5-bromo-2-methoxyphenyl)-1-(1-hydroxynaphthalen-2-yl)prop-2-en-1-one]	90
COc1ccccc1-c1oc2ccccc2c(=O)c1O [Compound 9a, 3-Hydroxy-2-(2-methoxyphenyl)-4H-chromen-4-one]	-21.6

Same assay, conditions: human, TZMbI cells, 40 μM, Experiment 2A; read-out: % decrease in viability compared to 0.1% DMSO vehicle based on viable cell luminescence

SMILES	cytotoxicity at 40 μM [%]
COc1ccccc1-c1oc2ccccc2c(=O)c1O [Compound 9a, 3-Hydroxy-2-(2-methoxyphenyl)-4H-chromen-4-one]	-25.4

Same assay, conditions: human, TZMbI cells, 80 μM, Experiment 2A; read-out: % decrease in viability compared to 0.1% DMSO vehicle based on viable cell luminescence

SMILES	cytotoxicity at 80 μM [%]
COc1ccccc1-c1oc2ccccc2c(=O)c1O [Compound 9a, 3-Hydroxy-2-(2-methoxyphenyl)-4H-chromen-4-one]	-7.86

Biological target: T1, US28 receptor (Human cytomegalovirus, UniProt P69332)
T1 construct: expressed in transfected cells; host or cells: HEK 293T cells, transiently transfected
T1 sequence (P69332 whole entry): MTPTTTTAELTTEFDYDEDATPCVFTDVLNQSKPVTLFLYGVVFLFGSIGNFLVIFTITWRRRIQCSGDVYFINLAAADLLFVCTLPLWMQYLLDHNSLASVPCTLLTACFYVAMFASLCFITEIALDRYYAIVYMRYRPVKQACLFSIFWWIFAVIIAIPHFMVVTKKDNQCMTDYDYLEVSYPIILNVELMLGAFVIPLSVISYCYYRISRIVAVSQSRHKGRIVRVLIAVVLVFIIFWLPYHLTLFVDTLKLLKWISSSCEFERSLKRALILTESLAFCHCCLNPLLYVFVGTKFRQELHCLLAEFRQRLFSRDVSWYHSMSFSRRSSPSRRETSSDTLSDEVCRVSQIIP
Assay: PathDetect trans Elk1 luciferase reporter gene assay in US28-transfected 293T HEK cells
Type: cell-based, Human Cytomegalovirus (HCMV)
Details: EC50 (μM), 293T HEK cells transiently expressing US28, Elk1 reporter; NE = no effect when tested at 10 μM of compound
Summary of the method: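 HEK293T cells transiently transfected with Elk1, Luc and US28 vector (empty pcDNA3 for mock) were dosed with compounds in DMEM/1% FBS with 1% DMSO for 20-24 h at 37° C. Bright-Glo luminescence decrease was read; EC50 is halfway between maximal response and no-compound control, by non-linear regression.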

SMILES	EC50 [µM]
COc1ccccc1-c1oc2ccccc2c(=O)c1O [Compound 9a, 3-Hydroxy-2-(2-methoxyphenyl)-4H-chromen-4-one]	4.6

Same assay, conditions: Elk1 reporter, US28-transfected HEK cells

SMILES	type of activity on the US28 receptor (agonist / inverse agonist / none), in words
COc1ccccc1-c1oc2ccccc2c(=O)c1O [Compound 9a, 3-Hydroxy-2-(2-methoxyphenyl)-4H-chromen-4-one]	inhibited US28 receptor constitutive activity

Same assay, conditions: maximum intrinsic activity from dose-response curve; negative = inverse agonism

SMILES	Efficacy(%)
COc1ccccc1-c1oc2ccccc2c(=O)c1O [Compound 9a, 3-Hydroxy-2-(2-methoxyphenyl)-4H-chromen-4-one]	−19

Same assay, conditions: pEC50 ± SEM, 293T HEK cells transiently expressing US28, Elk1 reporter

SMILES	EC50 [µM]
COc1ccc(Br)cc1/C=C/C(=O)c1ccc2ccccc2c1O [Compound 8m, (E)-3-(5-bromo-2-methoxyphenyl)-1-(1-hydroxynaphthalen-2-yl)prop-2-en-1-one]	2.88

Same assay, conditions: read-out: Efficacy(%), maximum intrinsic activity from dose-response curve; negative = inverse agonism

SMILES	Emax [%]
COc1ccccc1-c1oc2ccccc2c(=O)c1O [Compound 9a, 3-Hydroxy-2-(2-methoxyphenyl)-4H-chromen-4-one]	-19
